Where a name gives a salt, the structure may show the parent alone. The source made the active and inactive calls. No cut-off for these calls is given here.

Data set [1] deals with HepG2. Kind of data set: Cytotoxicity against adriamycin-resistant human HepG2 cells assessed as growth inhibition after 72 hrs by MTT assay. The class given is functional, cell-based. Particulars: HepG2, 72 h. (In general: Formazan colour is commonly taken as a measure of viable cells.)
Data set [2] relates to HepG2. Description: Cytotoxicity against human HepG2 cells assessed as growth inhibition after 72 hrs by MTT assay. The class given is functional, cell-based. Particulars: HepG2, 72 h.
The subject of a further data set is K562. Kind of data set: Cytotoxicity against human K562 cells assessed as growth inhibition after 72 hrs by MTT assay. The class given is functional, cell-based. As to conditions: K562, 72 h.
The next data set deals with MDA-MB-231. Kind of data set: Cytotoxicity against human MDA-MB-231 cells assessed as growth inhibition after 72 hrs by MTT assay. The class given is functional, cell-based. Particulars: MDA-MB-231, 72 h.
The subject of the next data set is MCF7. Description: Cytotoxicity against human MCF7 cells assessed as growth inhibition after 72 hrs by MTT assay. The format is functional, cell-based. Particulars: MCF7, 72 h.
Data set [3] in a line: Cytotoxicity against KM mouse splenic lymphocytes assessed as growth inhibition after 72 hrs by MTT assay. As to conditions: Splenic lymphocyte.
The next data set addresses Tubulin (Homo sapiens) (UniProt P68371+Q9H4B7+P0DPH7+P68366+Q13509+Q71U36+P04350+Q3ZCM7+P07437+P68363+Q9BQE3+Q6PEY2+Q13885+Q9BVA1+Q9BUF5). Kind of data set: Inhibition of tubulin polymerization (unknown origin) after 90 mins. The class given is protein-complex assay.
In data set [4] the test system is HepG2. Kind of data set: Antimitotic activity in human HepG2 cells assessed as cell morphological changes at 18 nM after 12 hrs by DAPI staining-based laser scanning confocal microscopic analysis. The format is functional.
The nature of data set [5]: Cytotoxicity against KM mouse splenic lymphocytes assessed as growth inhibition up to 50 uM after 72 hrs by MTT assay. Particulars: splenic lymphocyte.

What is called IC50 is the concentration that gives 50% inhibition. Turning to `CC[C@]1(O)C[C@@H]2CN(CCc3c([nH]c4ccccc34)[C@@](C(=O)OC)(c3cc4c(cc3OC)N(C)[C@H]3[C@@](O)(C(=O)OC)[C@H](OC(C)=O)[C@]5(CC)C=CCN6CC[C@]43[C@@H]65)C2)C1` [VINBLASTINE SULFATE], the half-inhibitory concentration (IC50) in the data set with HepG2 [1] worked out at 0.056 µM; in the data set with HepG2 [2] it was 0.019 µM; in the data set with K562, 0.016 µM; in the data set on MDA-MB-231, 0.0083 µM; with MCF7, 0.007 µM.
The corresponding values for `CC1(C)C(/C=C/c2c[nH]c3cc(F)ccc23)=Nc2ccccc21` are 14.9 µM, 9.87 µM, 20.2 µM, 24.4 µM and 3.47 µM.
For `CCN(CC)c1ccc(/C=C/C2=Nc3ccccc3C2(C)C)cc1` the same measures were 15.1 µM, 22.9 µM, 28.2 µM, 16.1 µM and 11.8 µM.
Take `CC1(C)C(/C=C/c2cccc(C(F)(F)F)c2)=Nc2ccccc21`: the IC50 in [3] turned out to be 36.3 µM; with HepG2 [1], 9.54 µM; in the data set with HepG2 [2], 11.7 µM; in the data set on K562 it was 9.83 µM; with MDA-MB-231, 3.2 µM; in the data set with MCF7 it was 2.13 µM.
Regarding `CC1(C)C(/C=C/c2c[nH]c3c([N+](=O)[O-])cccc23)=Nc2ccccc21`, the IC50 is 4 µM in the data set with HepG2 [1]; 16.8 µM in the data set with HepG2 [2]; 21 µM with K562; 26.1 µM in the data set with MDA-MB-231; 11.2 µM in the data set on MCF7.
Regarding `CC[C@]1(O)C[C@@H]2CN(CCc3c([nH]c4ccccc34)[C@@](C(=O)OC)(c3cc4c(cc3OC)N(C)[C@H]3[C@@](O)(C(=O)OC)[C@H](OC(C)=O)[C@]5(CC)C=CCN6CC[C@]43[C@@H]65)C2)C1`, the inhibition result at Tubulin (Homo sapiens) was “Active”. In addition, the result with HepG2 [4] was Active.
Turning to `CC1(C)C(/C=C/c2c[nH]c3ccccc23)=Nc2ccccc21`, the Activity entry in data set [5] was “Non-toxic”. For the same compound, the concentration for half-maximal inhibition (IC50) is 12.2 µM in the data set with HepG2 [1]; 17.9 µM in the data set with HepG2 [2]; 23 µM in the data set on K562; 11.6 µM in the data set on MDA-MB-231; 3.88 µM in the data set on MCF7.
For the compound `CCC1=C[C@@H]2CN3CCc4c([nH]c5ccccc45)[C@@](C(=O)OC)(C2)[C@@H]13`, the concentration for half-maximal inhibition (IC50) in the data set with HepG2 [1], in the data set on HepG2 [2], in the data set with K562, in the data set with MDA-MB-231 and in the data set with MCF7 was > 50 µM each time.
Consider `CN(C)c1ccc(/C=C/C2=Nc3ccccc3C2(C)C)cc1`, for which the half-inhibitory concentration (IC50) was found to be 22.1 µM in the data set with HepG2 [1]; 17.9 µM with HepG2 [2]; 25.7 µM in the data set with K562; 15.1 µM with MDA-MB-231; 8.1 µM in the data set with MCF7.
As for `Cc1ccc(/C=C/C2=Nc3ccccc3C2(C)C)cc1`, the IC50 was > 50 µM in the data set on HepG2 [1]; 43.9 µM with HepG2 [2]; 26.1 µM in the data set on K562; 22 µM in the data set on MDA-MB-231; 13.2 µM in the data set with MCF7.
As to `CC1(C)C(/C=C/c2c[nH]c3cc(Cl)ccc23)=Nc2ccccc21`, the IC50 in the data set with HepG2 [1] was 9.98 µM; with HepG2 [2], 18.1 µM; in the data set with K562, 13 µM; in the data set with MDA-MB-231, 20.1 µM; with MCF7 it was 19 µM.
The corresponding values for `Cc1cccc(/C=C/C2=Nc3ccccc3C2(C)C)c1` are 10.2 µM, 16.4 µM, 20.7 µM, 10.1 µM and 8.31 µM.
For `COc1ccc(/C=C/C2=Nc3ccccc3C2(C)C)cc1` the same measures were 47 µM, 20.8 µM, 19.9 µM, 15.6 µM and 10.4 µM.
The corresponding values for `CC1(C)C(/C=C/c2ccccc2[N+](=O)[O-])=Nc2ccccc21` are 9.74 µM, 12.7 µM, 13 µM, 3.77 µM and 1.75 µM.
On to `CC[C@]1(O)C[C@@H]2CN(CCc3c([nH]c4ccccc34)[C@@](C(=O)OC)(c3cc4c(cc3OC)N(C)[C@H]3[C@@](O)(C(=O)OC)[C@H](OC(C)=O)[C@]5(CC)C=CCN6CC[C@]43[C@@H]65)C2)C1` [VINBLASTINE], for which the half-inhibitory concentration (IC50) in data set [3] came out at 0.0016 µM.
On to `Cn1cc(/C=C/C2=Nc3ccccc3C2(C)C)c2ccccc21`, for which the IC50 amounted to 18.7 µM with HepG2 [1]; 39.4 µM in the data set on HepG2 [2]; 20.8 µM in the data set on K562; 22.4 µM with MDA-MB-231; 12.6 µM in the data set with MCF7.
Turning to `CC1(C)C(/C=C/c2c[nH]c3cccc(C#N)c23)=Nc2ccccc21`, the Activity entry in data set [5] was “Non-toxic”. Also, the concentration for half-maximal inhibition (IC50) in the data set on HepG2 [1] came to 3.18 µM; in the data set with HepG2 [2], 9.22 µM; in the data set on K562, 15.8 µM; in the data set with MDA-MB-231 it was 18.8 µM; in the data set with MCF7, 8.95 µM.
Turning to `CC1(C)C(/C=C/c2c[nH]c3ccc(Br)cc23)=Nc2ccccc21`, the 50% inhibitory concentration (IC50) is 9.1 µM with HepG2 [1]; 21.5 µM in the data set with HepG2 [2]; 20.1 µM in the data set on K562; 21.8 µM with MDA-MB-231; 21 µM with MCF7.
For `Cc1ccc2[nH]cc(/C=C/C3=Nc4ccccc4C3(C)C)c2c1` the same measures were 6.13 µM, 18.7 µM, 21.2 µM, 14.6 µM and 15.9 µM.
The corresponding values for `COc1ccc2[nH]cc(/C=C/C3=Nc4ccccc4C3(C)C)c2c1` are 23.4 µM, 18.5 µM, 16.9 µM, 14 µM and 7.05 µM.
The corresponding values for `Cc1[nH]c2ccccc2c1/C=C/C1=Nc2ccccc2C1(C)C` are 4.41 µM, 15.4 µM, 22.7 µM, 32.6 µM and 6.25 µM.
On to `COc1cccc(/C=C/C2=Nc3ccccc3C2(C)C)c1`, for which the inhibition entry on Tubulin (Homo sapiens) is “Active”. Further, the IC50 with HepG2 [1] was determined as 9.94 µM; in the data set on HepG2 [2], 11.4 µM; with K562, 9.64 µM; in the data set with MDA-MB-231 it was 3.1 µM; in the data set on MCF7, 2.19 µM.
On to `COc1ccc(/C=C/C2=Nc3ccccc3C2(C)C)cc1OC`, for which the IC50 in the data set on HepG2 [1] came out at 28.6 µM; with HepG2 [2] it was 35 µM; in the data set on K562, 37.1 µM; in the data set with MDA-MB-231 it was 9.11 µM; with MCF7, 12 µM.
For the compound `CC1(C)C(/C=C/c2ccc(C(F)(F)F)cc2)=Nc2ccccc21`, the inhibition result on Tubulin (Homo sapiens) is “Active”. For the same compound, the IC50 in [3] came to 35.4 µM; in the data set with HepG2 [1], 7.91 µM; in the data set with HepG2 [2], 9.49 µM; with K562, 8.87 µM; with MDA-MB-231, 2.63 µM; with MCF7, 1.45 µM.
`CC1(C)C(/C=C/c2ccc([N+](=O)[O-])cc2)=Nc2ccccc21`: the half-maximal inhibitory concentration (IC50) was found to be 20.7 µM in data set [3]; 2.49 µM with HepG2 [1]; 5.55 µM in the data set on HepG2 [2]; 4.32 µM in the data set with K562; 2.01 µM in the data set with MDA-MB-231; 0.96 µM with MCF7.
For the compound `COc1cc(/C=C/C2=Nc3ccccc3C2(C)C)cc(OC)c1OC`, the Activity entry in data set [5] is reported as “Non-toxic”. The IC50 in the data set with HepG2 [1] turned out to be 10.8 µM; in the data set on HepG2 [2], 12.7 µM; with K562, 15.3 µM; in the data set on MDA-MB-231 it was 4.13 µM; in the data set on MCF7, 1.76 µM.
In the case of `Cc1c(/C=C/C2=Nc3ccccc3C2(C)C)c2ccccc2n1C`, the 50% inhibitory concentration (IC50) with HepG2 [1] is 3.34 µM; in the data set on HepG2 [2], 35.9 µM; in the data set on K562, 23.2 µM; in the data set on MDA-MB-231, 38.5 µM; with MCF7 it was 17.1 µM.
The corresponding values for `COc1ccccc1/C=C/C1=Nc2ccccc2C1(C)C` are 12.6 µM, 22 µM, 22.9 µM, 10.7 µM and 5.13 µM.
`CCC12C=CCN3CC[C@@]4(c5ccc(OC)cc5N(C)[C@H]4[C@@](O)(C(=O)OC)[C@@H]1OC(C)=O)[C@@H]32` (stereo partly specified) [VINDOLINE]: the half-inhibitory concentration (IC50) in the data set with HepG2 [1], with HepG2 [2], in the data set with K562, in the data set with MDA-MB-231 and in the data set on MCF7 was > 50 µM each time.
As for `CC1(C)C(/C=C/c2ccc(Br)cc2)=Nc2ccccc21`, the IC50 with HepG2 [1] was 9.92 µM; in the data set on HepG2 [2], 15.6 µM; in the data set on K562, 20.2 µM; in the data set with MDA-MB-231, 5.16 µM; with MCF7, 5.26 µM.

These data come from ChEMBL document CHEMBL2434943, “Elaboration of thorough simplified vinca alkaloids as antimitotic agents based on pharmacophore similarity” (Eur J Med Chem, 2013).
